Measurements from the NIST ThermoML archive (doi:10.1021/je700373r).
± gives the expanded uncertainty stated by the source.

Tests used:
[1] = Fluid (supercritical or subcritical phases), Vibrating tube method
[2] = xn = mol fraction of the nth substance listed; conditions: Fluid (supercritical or subcritical phases), Vibrating tube method, x2 = 0

O=C=O [carbon dioxide]
mass density [kg/m3], [1]
Conditions | 10000 kPa | 15000 kPa | 20000 kPa | 30000 kPa | 40000 kPa
308.15 K | 717.2 ± 2.1 | 816.1 ± 1.6 | 866.1 ± 1 | 929 ± 0.8 | 971.7 ± 0.7
313.15 K | 636.6 ± 3.3 | 781.3 ± 2.1 | 840.2 ± 1 | 909.7 ± 0.9 | 955.5 ± 0.8
323.15 K | 397.3 ± 5.2 | 701.8 ± 3.9 | 784.9 ± 1.3 | 870.3 ± 0.9 | 922.8 ± 0.8
333.15 K | 296.1 ± 6.3 | 607 ± 4.4 | 724.4 ± 1.6 | 829.6 ± 1.1 | 889.8 ± 0.9

O=C=O [carbon dioxide] + CC1=C(/C=C/C(C)=C/C=C/C(C)=C/C=C/C=C(C)/C=C/C=C(C)/C=C/C2=C(C)CCCC2(C)C)C(C)(C)CCC1
mass density [kg/m3], [2]
Conditions | 10000 kPa | 15000 kPa | 20000 kPa | 30000 kPa | 40000 kPa
308.15 K | 717.2 ± 2.1 | 816.1 ± 1.6 | 866.1 ± 1 | 929 ± 0.8 | 971.7 ± 0.7
313.15 K | 636.6 ± 3.3 | 781.3 ± 2.1 | 840.2 ± 1 | 909.7 ± 0.9 | 955.5 ± 0.8
323.15 K | 397.3 ± 5.2 | 701.8 ± 3.9 | 784.9 ± 1.3 | 870.3 ± 0.9 | 922.8 ± 0.8
333.15 K | 296.1 ± 6.3 | 607 ± 4.4 | 724.4 ± 1.6 | 829.6 ± 1.1 | 889.8 ± 0.9
